We go through one molecule from patent publication US20100305053A1, “USE OF […] OF A DERIVATIVE THEREOF FOR THE PREVENTION AND/OR TREATMENT OF SLACKENED SKIN” (L'OREAL, priority 2007, published 2010).

The test system of assay [1] is collagen IV. Nature of the assay: Collagen IV immunolabeling (immunofluorescence) of skin sections after 24 weeks of dietary hesperidin. The assay is classed as in vivo. The following applies: for Number of sections (out of 12) with medium and strong labeling of the DEJ / % of sections with medium and strong labeling of the DEJ: collagen IV; for Number of sections (out of 12) with medium and strong labeling of the DEJ: control group E: 6; for % of sections with medium and strong labeling of the DEJ: control group E: 50. How it is done:
(§1) The study was carried out on elderly, healthy individuals subjected, for 24 weeks, to a diet optionally comprising hesperidin.
(§2) The first group of individuals (group E) is a control group subjected to a standard diet free of hesperidin.
(§3) The second group of individuals (group F) is a group subjected to a diet comprising 0.1% by weight of hesperidin relative to the standard diet, which corresponds to 50 mg of hesperidin per kg of body weight of the individual and per day.
(§4) The third group of individuals (group G) is a group subjected to a standard diet comprising 0.5% by weight of hesperidin relative to the standard diet, which corresponds to 250 mg of hesperidin per kg of body weight of the individual and per day.
(§5) Skin samples were taken and analyzed in order to study, by immunofluorescence, the expression of the collagen IV and collagen VII skin markers characteristic of the dermoepidermal junction.
The immunolabeling of collagen IV is carried out by immunohistochemistry with an “anticollagen type IV polyclonal” primary antibody [Rockland (sold by Tebu-Bio), dilution 1/50] and an “anti-rabbit FITC” secondary antibody [Santa Cruz, dilution 1/100].
The labeling was carried out on frozen sections 5 μm thick derived from skin samples.
The slides were recovered in PBS for five minutes, incubated with the primary antibody for one hour at ambient temperature in the dark, rinsed in PBS twice for five minutes, then incubated with the secondary antibody for one hour at ambient temperature in the dark, and then again rinsed in PBS twice for five minutes.
The slides were then mounted with Vectashield (Vector) containing DAPI ([…]), and then covered with a coverslip.

Assay [2] concerns collagen VII. Briefly: Collagen VII immunolabeling (immunofluorescence) of skin sections after 24 weeks of dietary hesperidin. The assay is classed as in vivo. The following applies: for Number of sections (out of 12) with labeling of the DEJ and labeling in the papillary dermis / % of sections with labeling of the DEJ and labeling in the papillary dermis: collagen VII; for Number of sections (out of 12) with labeling of the DEJ and labeling in the papillary dermis: control group E: 3; for % of sections with labeling of the DEJ and labeling in the papillary dermis: control group E: 25. The method, then:
as §1, §2, §3, §4, §5
The collagen VII immunolabeling is carried out as indicated previously, but using “anticollagen type VII polyclonal” [EUROMEDEX (sold by Chemicon), dilution 1/500] as primary antibody and “anti-mouse Ig FITC” [Dake, dilution 1/100] as secondary antibody.

The mark [3] stands for this setting: group F, diet with 0.1% by weight hesperidin (50 mg/kg/day), 24 weeks.
Setting [4] is: group G, diet with 0.5% by weight hesperidin (250 mg/kg/day), 24 weeks.

SMILES strings stand for the structures.

In the case of `COc1ccc([C@@H]2CC(=O)c3c(O)cc(O[C@@H]4O[C@H](CO[C@@H]5O[C@@H](C)[C@H](O)[C@@H](O)[C@H]5O)[C@@H](O)[C@H](O)[C@H]4O)cc3O2)cc1O` [Hesperidin, (S)-7-[[6-O-(6-deoxy-α-L-mannopyranosyl)-β-D-glucopyranosyl]oxy]-2,3-dihydro-5-hydroxy-2-(3-hydroxy-4-methoxyphenyl)-4H-1-benzopyran-4-one], in assay [1] (setting [3]), the “Number of sections (out of 12) with medium and strong labeling of the DEJ” value was determined as 7; the “% of sections with medium and strong labeling of the DEJ” value stood at 58%. In assay [1] (setting [4]), the “Number of sections (out of 12) with medium and strong labeling of the DEJ” value is 12; the “% of sections with medium and strong labeling of the DEJ” value is recorded as 100%. Besides, in assay [1] (oral, diet, 24 weeks), the “Effect on collagen network in the dermal tissue and collagen IV expression (conclusion)” value is “increase in the expression of the collagen IV”. Besides, the “Expression of collagen IV in the basal lamina compared with the control” value in assay [1] (the two treated groups (F and G), FIG. 1) is “greater expression of collagen IV”. Further, in assay [2] (setting [3]), the “Number of sections (out of 12) with labeling of the DEJ and labeling in the papillary dermis” value amounted to 6; the “% of sections with labeling of the DEJ and labeling in the papillary dermis” value came out at 50%. Also, in assay [2] (setting [4]), the “Number of sections (out of 12) with labeling of the DEJ and labeling in the papillary dermis” value came out at 11; the “% of sections with labeling of the DEJ and labeling in the papillary dermis” value was found to be 92%. For the same molecule, the “Collagen VII fluorescence intensity at the DEJ and in the papillary dermis” value in assay [2] (more particularly group G (0.5% hesperidin diet), FIG. 2) is on record as “increase in fluorescence intensity”. Further, in assay [2] (oral, diet, 24 weeks), the “Effect on collagen network in the dermal tissue and collagen VII expression (conclusion)” value is “increase in the expression of collagen VII”.
